Measurements taken from patent publication US11993786B2, “Methods and compositions for generating pacemaker cells” (TAIPEI VETERANS GENERAL HOSPITAL, priority 2017, dated 2024).

Columns and labels:
HCN4 = target: T1, HCN4 (Rattus norvegicus, UniProt Q9JKA7); experiment: Effect of HCN4 inhibitor on spontaneous beating rate (calcium transient cycling); assay type: cell-based; details: 3 μM ivabradine
T1 construct: endogenous in cells; host or cells: NRVMs (primary neonatal rat ventricular cardiomyocytes) on silk fibroin film or fibronectin control
T1 sequence (Q9JKA7 1-1198): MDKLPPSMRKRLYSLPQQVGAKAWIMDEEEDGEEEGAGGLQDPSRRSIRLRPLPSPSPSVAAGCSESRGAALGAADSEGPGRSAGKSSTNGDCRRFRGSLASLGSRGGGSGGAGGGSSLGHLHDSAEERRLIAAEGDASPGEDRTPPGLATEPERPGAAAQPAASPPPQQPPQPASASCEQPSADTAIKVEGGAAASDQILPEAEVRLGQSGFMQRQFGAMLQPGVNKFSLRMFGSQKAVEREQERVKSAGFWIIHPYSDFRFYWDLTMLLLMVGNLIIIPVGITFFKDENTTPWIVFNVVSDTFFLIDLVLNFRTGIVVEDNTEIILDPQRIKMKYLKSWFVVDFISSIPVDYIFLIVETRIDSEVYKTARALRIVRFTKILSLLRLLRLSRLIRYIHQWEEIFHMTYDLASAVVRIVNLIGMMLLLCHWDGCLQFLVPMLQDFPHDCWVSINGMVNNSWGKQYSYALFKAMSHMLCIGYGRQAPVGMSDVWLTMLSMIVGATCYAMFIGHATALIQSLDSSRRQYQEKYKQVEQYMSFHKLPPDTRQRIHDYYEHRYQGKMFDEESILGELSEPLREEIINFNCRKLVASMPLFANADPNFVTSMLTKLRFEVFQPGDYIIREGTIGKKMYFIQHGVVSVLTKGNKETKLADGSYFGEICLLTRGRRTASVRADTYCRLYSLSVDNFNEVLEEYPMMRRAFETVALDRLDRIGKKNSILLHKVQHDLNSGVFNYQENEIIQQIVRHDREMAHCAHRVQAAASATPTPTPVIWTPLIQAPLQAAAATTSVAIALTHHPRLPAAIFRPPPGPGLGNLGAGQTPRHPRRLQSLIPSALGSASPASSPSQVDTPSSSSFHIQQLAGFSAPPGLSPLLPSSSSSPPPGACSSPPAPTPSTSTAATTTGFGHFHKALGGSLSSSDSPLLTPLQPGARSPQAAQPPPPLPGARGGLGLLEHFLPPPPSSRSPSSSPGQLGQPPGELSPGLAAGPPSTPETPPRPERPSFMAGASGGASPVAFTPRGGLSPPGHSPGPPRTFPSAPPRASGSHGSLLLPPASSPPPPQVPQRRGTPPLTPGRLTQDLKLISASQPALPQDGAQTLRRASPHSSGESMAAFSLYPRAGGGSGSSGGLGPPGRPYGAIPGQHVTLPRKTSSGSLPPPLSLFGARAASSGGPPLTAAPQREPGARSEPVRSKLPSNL
Method: (§1) Seeded cardiomyocytes in Tyrode's solution were loaded with Ca^2+ indicators (10 μM Fluo-3/AM for cardiomyocytes; Calbiochem, San Diego, CA, USA) and incubated at room temperature for 30 minutes in the dark. Fluorescence imaging was performed with a laser scanning confocal microscope (Olympus IX71, Olympus America). The fluorescence density (F) was normalized against the baseline fluorescence (F0) to determine the transient [Ca^2+]i changes, which had excluded variations in the fluorescence intensity because of different volumes of injected dye. Offline analysis was performed using Olympus IX71 and ImageJ.
The spontaneous beating is tightly regulated by HCN4 channels in native SAN pacemakers. Therefore, in this example, cells from Example 1 were treated with 3 μM ivabradine, a selective HCN4 inhibitor, to evaluate the impact of HCN4 on the function of SF-treated cardiomyocytes.

β-adrenergic receptor = experiment: Sympathetic stimulation of beating rate with isoproterenol; assay type: cell-based, rat; details: 1 μM isoproterenol
Method: as §1
Isoproterenol is a non-selective β-adrenergic receptor agonist, which is used for pharmacological sympathetic stimulation to evaluate the physiological sympathetic regulation of sinus node. In this example, the functional regulations of autonomic neurotransmitters in SF-treated cardiomyocytes were investigated using the isoproterenol treatment (1 μM).

| suppression of beating rate (cycling rate of spontaneous calcium transient) (HCN4; SF-treated cardiomyocytes, vs baseline, n=15, P=0.002) | beating rate vs baseline (HCN4; control cells, n=32, P=0.24) | SMILES | beating rate (β-adrenergic receptor; SF-treated cardiomyocytes, n=10, P=0.001 vs control) | increment of beating rate without vs with isoproterenol (β-adrenergic receptor; SF-treated cells, n=10, P=0.02 vs control) | beating rate (β-adrenergic receptor; control cells) | increment of beating rate without vs with isoproterenol (β-adrenergic receptor; control cells) |
| --- | --- | --- | --- | --- | --- | --- |
| 57% | did not differ significantly | COc1cc2c(cc1OC)CC(=O)N(CCCN(C)C[C@H]1Cc3cc(OC)c(OC)cc31)CC2 [ivabradine] | – | – | – | – |
| – | – | CC(C)NCC(O)c1ccc(O)c(O)c1 (stereo not drawn) [isoproterenol] | 162.4±9.6 bpm | 87.1±12.4 bpm | 87.6±14.7 bpm | 49.2±8.3 bpm |
